ChEMBL document CHEMBL3885881, “DrugMatrix”

Species: Rattus norvegicus
Experiment: DrugMatrix - Regimen: Daily Repeat
Format: toxicity, organism-based, Sprague-Dawley
Design: regimen Daily Repeat, gender Male, age 6-8 weeks
Conditions: in vivo, po, route oral GAVAGE, vehicle .5 % CMC; for ABSOLUTE BASOPHIL / ABSOLUTE EOSINOPHIL / ABSOLUTE LYMPHOCYTE / ABSOLUTE MONOCYTE / ABSOLUTE SEGMENTED NEUTROPHIL / BASOPHIL / EOSINOPHIL / ERYTHROCYTE COUNT / HEMATOCRIT / HEMOGLOBIN / LEUKOCYTE COUNT / LYMPHOCYTE / MEAN CORPUSCULAR HEMOGLOBIN / MEAN CORPUSCULAR HEMOGLOBIN CONCENTRATION / MEAN CORPUSCULAR VOLUME / MONOCYTE / NEUTROPHIL / NUCLEATED RED BLOOD CELLS / PLATELET COUNT: tissue Blood; for ALANINE AMINOTRANSFERASE / ALBUMIN / ALKALINE PHOSPHATASE / ASPARTATE AMINOTRANSFERASE / BLOOD UREA NITROGEN / CARBON DIOXIDE / CHLORIDE / CHOLESTEROL / CREATINE PHOSPHOKINASE / CREATININE / GLUCOSE / LACTATE DEHYDROGENASE / LIPASE / PHOSPHORUS / POTASSIUM / SODIUM / TOTAL BILIRUBIN / TOTAL PROTEIN / URIC ACID: tissue Plasma
[1] = 170 mg/kg, 72 h, dose level Low, time 3 day
[2] = 170 mg/kg, 120 h, dose level Low, time 5 day
[3] = 1700 mg/kg, 72 h, dose level High, time 3 day
[4] = 1700 mg/kg, 120 h, dose level High, time 5 day

O=C(O)c1ccccc1 [BENZOIC ACID]
ABSOLUTE BASOPHIL [1]: 0 CELLS/uL
ABSOLUTE EOSINOPHIL [1]: 0 CELLS/uL
ABSOLUTE LYMPHOCYTE [1]: 11616 CELLS/uL
ABSOLUTE MONOCYTE [1]: 0 CELLS/uL
ABSOLUTE SEGMENTED NEUTROPHIL [1]: 1417.33 CELLS/uL
BASOPHIL [1]: 0%
EOSINOPHIL [1]: 0%
ERYTHROCYTE COUNT [1]: 5.44 x10E6/uL
HEMATOCRIT [1]: 34.03%
HEMOGLOBIN [1]: 13.07 G/DL
LEUKOCYTE COUNT [1]: 13.03 x10E3/uL
LYMPHOCYTE [1]: 89.33%
MEAN CORPUSCULAR HEMOGLOBIN [1]: 24.03 pg
MEAN CORPUSCULAR HEMOGLOBIN CONCENTRATION [1]: 38.4 G/DL
MEAN CORPUSCULAR VOLUME [1]: 62.6 fL
MONOCYTE [1]: 0%
NEUTROPHIL [1]: 10.67%
NUCLEATED RED BLOOD CELLS [1]: 0 /100WBC
PLATELET COUNT [1]: 1319.33 x10E3/uL
ALANINE AMINOTRANSFERASE [1]: 59.67 u/L
ALBUMIN [1]: 4.13 G/DL
ALKALINE PHOSPHATASE [1]: 380 u/L
ASPARTATE AMINOTRANSFERASE [1]: 88 u/L
BLOOD UREA NITROGEN [1]: 17 mg/dL
CARBON DIOXIDE [1]: 29.33 mmol/L
CHLORIDE [1]: 100.67 MEQ/L
CHOLESTEROL [1]: 99 mg/dL
CREATINE PHOSPHOKINASE [1]: 286 u/L
CREATININE [1]: 0.23 mg/dL
GLUCOSE [1]: 150 mg/dL
LACTATE DEHYDROGENASE [1]: 280 u/L
LIPASE [1]: 10 u/L
PHOSPHORUS [1]: 13.27 mg/dL
POTASSIUM [1]: 6.52 MEQ/L
SODIUM [1]: 146.37 MEQ/L
TOTAL BILIRUBIN [1]: 0.17 mg/dL
TOTAL PROTEIN [1]: 5.97 G/DL
URIC ACID [1]: 1.6 mg/dL
ABSOLUTE BASOPHIL [2]: 0 CELLS/uL
ABSOLUTE EOSINOPHIL [2]: 64 CELLS/uL
ABSOLUTE LYMPHOCYTE [2]: 17040 CELLS/uL
ABSOLUTE MONOCYTE [2]: 0 CELLS/uL
ABSOLUTE SEGMENTED NEUTROPHIL [2]: 1696 CELLS/uL
BASOPHIL [2]: 0%
EOSINOPHIL [2]: 0.33%
ERYTHROCYTE COUNT [2]: 5.48 x10E6/uL
HEMATOCRIT [2]: 35.33%
HEMOGLOBIN [2]: 13.8 G/DL
LEUKOCYTE COUNT [2]: 18.8 x10E3/uL
LYMPHOCYTE [2]: 90.67%
MEAN CORPUSCULAR HEMOGLOBIN [2]: 25.23 pg
MEAN CORPUSCULAR HEMOGLOBIN CONCENTRATION [2]: 39.07 G/DL
MEAN CORPUSCULAR VOLUME [2]: 64.5 fL
MONOCYTE [2]: 0%
NEUTROPHIL [2]: 9%
NUCLEATED RED BLOOD CELLS [2]: 0 /100WBC
PLATELET COUNT [2]: 1165 x10E3/uL
ALANINE AMINOTRANSFERASE [2]: 57.33 u/L
ALBUMIN [2]: 4.23 G/DL
ALKALINE PHOSPHATASE [2]: 352 u/L
ASPARTATE AMINOTRANSFERASE [2]: 96.67 u/L
BLOOD UREA NITROGEN [2]: 15.67 mg/dL
CARBON DIOXIDE [2]: 24 mmol/L
CHLORIDE [2]: 103.67 MEQ/L
CHOLESTEROL [2]: 79 mg/dL
CREATINE PHOSPHOKINASE [2]: 445 u/L
CREATININE [2]: 0.21 mg/dL
GLUCOSE [2]: 164.67 mg/dL
LACTATE DEHYDROGENASE [2]: 554.67 u/L
LIPASE [2]: 9.67 u/L
PHOSPHORUS [2]: 12.87 mg/dL
POTASSIUM [2]: 6.28 MEQ/L
SODIUM [2]: 144.9 MEQ/L
TOTAL BILIRUBIN [2]: 0.23 mg/dL
TOTAL PROTEIN [2]: 6.17 G/DL
URIC ACID [2]: 2.2 mg/dL
ABSOLUTE BASOPHIL [3]: 0 CELLS/uL
ABSOLUTE EOSINOPHIL [3]: 95.33 CELLS/uL
ABSOLUTE LYMPHOCYTE [3]: 13599.67 CELLS/uL
ABSOLUTE MONOCYTE [3]: 51.33 CELLS/uL
ABSOLUTE SEGMENTED NEUTROPHIL [3]: 1753.67 CELLS/uL
BASOPHIL [3]: 0%
EOSINOPHIL [3]: 0.67%
ERYTHROCYTE COUNT [3]: 6 x10E6/uL
HEMATOCRIT [3]: 35.93%
HEMOGLOBIN [3]: 14.17 G/DL
LEUKOCYTE COUNT [3]: 15.5 x10E3/uL
LYMPHOCYTE [3]: 87.67%
MEAN CORPUSCULAR HEMOGLOBIN [3]: 23.6 pg
MEAN CORPUSCULAR HEMOGLOBIN CONCENTRATION [3]: 39.43 G/DL
MEAN CORPUSCULAR VOLUME [3]: 59.9 fL
MONOCYTE [3]: 0.33%
NEUTROPHIL [3]: 11.33%
NUCLEATED RED BLOOD CELLS [3]: 0 /100WBC
PLATELET COUNT [3]: 1304 x10E3/uL
ALANINE AMINOTRANSFERASE [3]: 84.67 u/L
ALBUMIN [3]: 4.3 G/DL
ALKALINE PHOSPHATASE [3]: 341.67 u/L
ASPARTATE AMINOTRANSFERASE [3]: 125.33 u/L
BLOOD UREA NITROGEN [3]: 16 mg/dL
CARBON DIOXIDE [3]: 30.67 mmol/L
CHLORIDE [3]: 97.33 MEQ/L
CHOLESTEROL [3]: 63.67 mg/dL
CREATINE PHOSPHOKINASE [3]: 240.33 u/L
CREATININE [3]: 0.2 mg/dL
GLUCOSE [3]: 149 mg/dL
LACTATE DEHYDROGENASE [3]: 314.33 u/L
LIPASE [3]: 9.33 u/L
PHOSPHORUS [3]: 13.87 mg/dL
POTASSIUM [3]: 6.31 MEQ/L
SODIUM [3]: 144.83 MEQ/L
TOTAL BILIRUBIN [3]: 0.23 mg/dL
TOTAL PROTEIN [3]: 5.73 G/DL
URIC ACID [3]: 1.6 mg/dL
ABSOLUTE BASOPHIL [4]: 0 CELLS/uL
ABSOLUTE EOSINOPHIL [4]: 54.33 CELLS/uL
ABSOLUTE LYMPHOCYTE [4]: 15272.67 CELLS/uL
ABSOLUTE MONOCYTE [4]: 230 CELLS/uL
ABSOLUTE SEGMENTED NEUTROPHIL [4]: 2109.67 CELLS/uL
BASOPHIL [4]: 0%
EOSINOPHIL [4]: 0.33%
ERYTHROCYTE COUNT [4]: 5.71 x10E6/uL
HEMATOCRIT [4]: 34.87%
HEMOGLOBIN [4]: 14.07 G/DL
LEUKOCYTE COUNT [4]: 17.67 x10E3/uL
LYMPHOCYTE [4]: 86.33%
MEAN CORPUSCULAR HEMOGLOBIN [4]: 24.67 pg
MEAN CORPUSCULAR HEMOGLOBIN CONCENTRATION [4]: 40.33 G/DL
MEAN CORPUSCULAR VOLUME [4]: 61.07 fL
MONOCYTE [4]: 1.33%
NEUTROPHIL [4]: 12%
NUCLEATED RED BLOOD CELLS [4]: 0 /100WBC
PLATELET COUNT [4]: 1192 x10E3/uL
ALANINE AMINOTRANSFERASE [4]: 71 u/L
ALBUMIN [4]: 4.37 G/DL
ALKALINE PHOSPHATASE [4]: 303 u/L
ASPARTATE AMINOTRANSFERASE [4]: 113.33 u/L
BLOOD UREA NITROGEN [4]: 18.67 mg/dL
CARBON DIOXIDE [4]: 27.67 mmol/L
CHLORIDE [4]: 103.33 MEQ/L
CHOLESTEROL [4]: 67.33 mg/dL
CREATINE PHOSPHOKINASE [4]: 298.67 u/L
CREATININE [4]: 0.19 mg/dL
GLUCOSE [4]: 164.33 mg/dL
LACTATE DEHYDROGENASE [4]: 269.33 u/L
LIPASE [4]: 10 u/L
PHOSPHORUS [4]: 14 mg/dL
POTASSIUM [4]: 6.25 MEQ/L
SODIUM [4]: 149.6 MEQ/L
TOTAL BILIRUBIN [4]: 0.2 mg/dL
TOTAL PROTEIN [4]: 5.8 G/DL
URIC ACID [4]: 1.67 mg/dL
